Results published in ChEMBL document CHEMBL1201862, “PubChem BioAssay data set” (2004).
Activity calls are given as the source filed them.

Key:
[1] = HEK293T cell cytotoxicity, dose response, cytotoxicity control for HIV Vif inhibitor project, cherry-picks (AID 652208); format: functional, cell-based
[2] = inhibitors of SNCA 5'UTR-driven reporter translation, confirmation, H4 neuroglioma cells, luminescence (AID 1988); format: functional, cell-based
[3] = Luminescence Cell-Based Dose Response HTS to Identify Inhibitors of 5'UTR Stem-Loop Driven Prion Protein mRNA Translation in H4 Neuroglioblastoma Cells. [Related pubchem assays: 1827 (Project Summary), 1813 (Primary HTS)]; format: functional
[4] = molecular target: G-protein coupled receptor 55 (Homo sapiens, UniProt Q9Y2T6); test: GPR55 agonists via beta-arrestin recruitment, primary screen, imaging, U2OS cells, beta-arrestin-GFP redistribution (AID 1961); format: functional
Sequence of G-protein coupled receptor 55 (Q9Y2T6 whole entry): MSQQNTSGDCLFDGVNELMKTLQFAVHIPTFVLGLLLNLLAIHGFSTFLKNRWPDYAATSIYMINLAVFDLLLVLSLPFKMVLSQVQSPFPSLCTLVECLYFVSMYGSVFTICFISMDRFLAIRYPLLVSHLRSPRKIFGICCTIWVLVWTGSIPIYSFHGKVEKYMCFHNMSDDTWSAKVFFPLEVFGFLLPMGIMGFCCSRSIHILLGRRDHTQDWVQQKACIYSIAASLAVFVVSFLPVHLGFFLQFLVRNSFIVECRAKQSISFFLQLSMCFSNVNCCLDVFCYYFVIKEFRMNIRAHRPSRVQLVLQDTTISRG

INS1 = test: beta cell apoptosis inhibitors, cytokine rescue, dose response, luminescence, retest (AID 449756); format: functional, cell-based; details: Rattus norvegicus;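 also: cell death triggered by IL-1 beta plus TNF-alpha plus IFN-gamma mixture; protective hits raise ATP signal compared with cytokine alone wells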
[5] = inhibitors of firefly luciferase expression or activity, dose response, H4 neuroglioma cells, luminescence (AID 1990); format: functional, cell-based
[6] = molecular target: SWI/SNF-related matrix-associated actin-dependent regulator of chromatin subfamily A member 2 (Homo sapiens, UniProt P51531); test: Luminescence-based cell-based high throughput dose response assay to identify activators of the function of SWI/SNF related, matrix associated, actin dependent regulator of chromatin, subfamily a, member 2 (SMARCA2, BRM).; format: functional
Sequence of SWI/SNF-related matrix-associated actin-dependent regulator of chromatin subfamily A member 2 (P51531 whole entry): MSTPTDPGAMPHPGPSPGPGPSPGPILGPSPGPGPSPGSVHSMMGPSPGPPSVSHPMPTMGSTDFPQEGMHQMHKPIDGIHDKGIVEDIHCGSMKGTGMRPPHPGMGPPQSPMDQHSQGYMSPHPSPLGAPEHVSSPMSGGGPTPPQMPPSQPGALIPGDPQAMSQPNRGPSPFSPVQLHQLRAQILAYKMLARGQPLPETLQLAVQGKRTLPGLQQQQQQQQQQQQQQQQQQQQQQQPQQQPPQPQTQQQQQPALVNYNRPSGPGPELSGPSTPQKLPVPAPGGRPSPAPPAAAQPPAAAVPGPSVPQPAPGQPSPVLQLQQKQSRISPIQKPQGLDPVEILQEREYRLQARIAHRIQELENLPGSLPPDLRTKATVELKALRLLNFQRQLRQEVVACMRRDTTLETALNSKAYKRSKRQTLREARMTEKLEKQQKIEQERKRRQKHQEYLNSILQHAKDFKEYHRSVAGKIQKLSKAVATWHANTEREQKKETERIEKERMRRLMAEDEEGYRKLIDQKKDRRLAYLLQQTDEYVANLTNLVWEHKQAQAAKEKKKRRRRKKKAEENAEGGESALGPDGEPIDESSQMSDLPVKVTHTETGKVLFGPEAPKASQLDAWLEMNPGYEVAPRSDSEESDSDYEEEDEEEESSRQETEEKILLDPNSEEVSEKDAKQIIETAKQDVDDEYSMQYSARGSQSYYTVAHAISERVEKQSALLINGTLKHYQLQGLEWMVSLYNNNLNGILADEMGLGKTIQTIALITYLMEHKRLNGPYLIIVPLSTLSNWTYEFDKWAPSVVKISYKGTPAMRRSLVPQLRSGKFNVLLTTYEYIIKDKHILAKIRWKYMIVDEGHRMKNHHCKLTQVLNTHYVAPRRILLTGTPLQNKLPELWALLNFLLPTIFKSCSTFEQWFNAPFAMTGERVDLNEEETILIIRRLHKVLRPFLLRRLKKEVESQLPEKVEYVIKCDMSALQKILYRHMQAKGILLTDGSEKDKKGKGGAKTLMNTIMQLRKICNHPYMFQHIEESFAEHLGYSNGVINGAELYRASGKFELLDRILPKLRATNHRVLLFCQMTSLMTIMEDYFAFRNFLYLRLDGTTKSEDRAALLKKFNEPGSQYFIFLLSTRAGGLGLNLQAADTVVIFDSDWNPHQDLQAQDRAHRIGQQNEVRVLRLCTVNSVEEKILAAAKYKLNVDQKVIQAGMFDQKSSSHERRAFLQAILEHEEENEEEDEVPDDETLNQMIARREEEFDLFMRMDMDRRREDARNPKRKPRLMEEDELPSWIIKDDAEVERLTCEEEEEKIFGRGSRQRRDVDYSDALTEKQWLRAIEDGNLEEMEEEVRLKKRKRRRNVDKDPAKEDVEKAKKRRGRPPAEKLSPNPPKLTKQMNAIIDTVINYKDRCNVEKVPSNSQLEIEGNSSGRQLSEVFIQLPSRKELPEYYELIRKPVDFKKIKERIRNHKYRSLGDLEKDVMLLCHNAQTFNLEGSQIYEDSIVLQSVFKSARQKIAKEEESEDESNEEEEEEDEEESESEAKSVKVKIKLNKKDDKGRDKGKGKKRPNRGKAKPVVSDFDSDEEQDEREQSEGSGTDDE

[7] = Counterscreen for activators of the function of SWI/SNF related, matrix associated, actin dependent regulator of chromatin, subfamily a, member 2 (SMARCA2, BRM): Luminescence-based cell-based high throughput dose response assay to identify non-selective compounds using the VP16 reporter assay.; format: functional
[8] = inhibitors of PGC1a acetylation in cells, dose response, cell-based, cherry-picked samples (AID 720514); format: functional;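 also: potency may reflect raised or lowered acetylation signal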
[9] = THP-1 cell cytotoxicity, dose response, cytotoxicity control for non-replicating M. tuberculosis project (AID 489025); format: functional
[10] = Shn3 3'UTR reporter inhibitors, dose response, cell-based, Clone20 osteoblasts, firefly luciferase, cherry-picked (AID 624132); format: functional;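 also: firefly luciferase luminescence from reporter carrying the Shn3 3'UTR in osteoblasts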
[11] = HepG2 cell cytotoxicity, dose response, cytotoxicity control for Shn3 inhibitor project, CellTiter-Glo, cherry-picked (AID 624134); format: functional, cell-based
[12] = control 3'UTR Renilla luciferase suppression, dose response, counter-screen for Shn3 inhibitor project, cell-based, Clone20-Shn3RL, cherry-picked (AID 624133); format: functional
[13] = Luminescence Cell-Based Dose Retest to Confirm Inhibitors of Cancer Stem Cells. [Related pubchem assays (depositor defined):AID2717, AID2721]; format: functional; details: Homo sapiens
[14] = inhibitors of control Renilla luciferase reporter, dose response, counter-screen for Shn3 3'UTR targeting project, Clone20-Shn3RL cells, dual-Glo, cherry-pick, set 2 (AID 720724); format: functional, cell-based; details: Dual-Go Shn3RL
cells = format: functional
[15] = reduction of Shn3 3'UTR firefly luciferase signal, dose response, Schnurri-3 inhibitor project, cell-based, Clone20 osteoblasts, cherry-pick, set 2 (AID 720490); format: functional;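 also: actives lower the luminescence signal as inhibitors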
[16] = Fluorescence-based cell-based high throughput dose response assay for inhibitors of the interaction of nucleotide-binding oligomerization domain containing 2 (NOD2) and the receptor-interacting serine-threonine kinase 2 (RIPK2).; format: functional; details: Homo sapiens
[17] = molecular target: T1, Replicative DNA helicase DnaB (Mycobacterium tuberculosis, UniProt P9WMR3); test: DnaB intein splicing inhibitors, dose response, biochemical, cell-free fluorescence (AID 449749); format: functional
T1 sequence (P9WMR3 whole entry): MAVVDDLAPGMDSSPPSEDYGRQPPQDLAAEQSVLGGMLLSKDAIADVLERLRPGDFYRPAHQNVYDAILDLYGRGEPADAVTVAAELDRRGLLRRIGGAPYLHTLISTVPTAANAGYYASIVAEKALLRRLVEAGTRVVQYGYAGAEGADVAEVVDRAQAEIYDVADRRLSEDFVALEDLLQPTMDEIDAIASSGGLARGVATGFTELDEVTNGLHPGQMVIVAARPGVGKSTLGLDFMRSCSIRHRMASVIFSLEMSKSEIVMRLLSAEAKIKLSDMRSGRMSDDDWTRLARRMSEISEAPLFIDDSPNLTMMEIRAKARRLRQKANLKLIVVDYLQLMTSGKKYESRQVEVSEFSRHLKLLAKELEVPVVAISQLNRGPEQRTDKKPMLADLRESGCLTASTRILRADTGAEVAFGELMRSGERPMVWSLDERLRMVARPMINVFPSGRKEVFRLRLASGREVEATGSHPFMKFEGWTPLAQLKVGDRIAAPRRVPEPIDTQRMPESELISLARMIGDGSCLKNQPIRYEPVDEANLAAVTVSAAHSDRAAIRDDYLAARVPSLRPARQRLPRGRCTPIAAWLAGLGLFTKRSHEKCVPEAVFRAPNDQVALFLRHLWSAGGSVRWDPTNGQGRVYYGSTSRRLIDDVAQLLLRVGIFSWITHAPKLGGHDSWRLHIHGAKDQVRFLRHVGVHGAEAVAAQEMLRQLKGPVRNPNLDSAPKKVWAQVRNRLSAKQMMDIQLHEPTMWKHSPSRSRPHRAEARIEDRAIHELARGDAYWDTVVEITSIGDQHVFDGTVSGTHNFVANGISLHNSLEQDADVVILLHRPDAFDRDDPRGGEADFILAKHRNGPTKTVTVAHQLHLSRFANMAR

Protein RecA = molecular target: T2, Protein RecA (Mycobacterium tuberculosis, UniProt P9WHJ3); test: Fluorescence Cell-Free Homogeneous Dose Retest to Identify Inhibitors of RecA-Intein Splicing Activity. [Related pubchem assays (depositor defined):AID2097, AID2223, AID489010, AID492950]; format: functional
T2 sequence (P9WHJ3 whole entry): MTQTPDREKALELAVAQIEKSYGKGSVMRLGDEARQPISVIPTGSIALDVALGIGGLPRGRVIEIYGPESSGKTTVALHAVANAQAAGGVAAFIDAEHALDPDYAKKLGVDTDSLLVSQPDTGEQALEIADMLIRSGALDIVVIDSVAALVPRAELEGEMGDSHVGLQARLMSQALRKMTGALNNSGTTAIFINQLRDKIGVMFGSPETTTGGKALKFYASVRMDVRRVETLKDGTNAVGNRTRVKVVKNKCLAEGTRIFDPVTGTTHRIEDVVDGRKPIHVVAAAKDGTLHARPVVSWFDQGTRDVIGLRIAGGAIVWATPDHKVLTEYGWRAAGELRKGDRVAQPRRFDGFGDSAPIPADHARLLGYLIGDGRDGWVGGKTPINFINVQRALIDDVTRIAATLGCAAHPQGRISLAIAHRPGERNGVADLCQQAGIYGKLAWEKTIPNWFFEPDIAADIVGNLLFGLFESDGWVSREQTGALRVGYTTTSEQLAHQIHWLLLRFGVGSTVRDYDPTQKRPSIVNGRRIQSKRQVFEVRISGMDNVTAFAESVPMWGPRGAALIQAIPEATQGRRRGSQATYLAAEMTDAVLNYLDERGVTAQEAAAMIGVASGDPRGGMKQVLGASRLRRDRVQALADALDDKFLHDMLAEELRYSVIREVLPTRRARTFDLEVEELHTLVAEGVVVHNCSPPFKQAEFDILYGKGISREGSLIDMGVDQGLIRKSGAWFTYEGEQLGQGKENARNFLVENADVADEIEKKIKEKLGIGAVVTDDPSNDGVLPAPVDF

[18] = human group III sPLA2 inhibitors, dose response, biochemical, QFRET, IC50 (AID 743457);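 also: green fluorescence rise as the enzyme cleaves BODIPY PC-A2 in liposomes; potency for inhibition of the enzyme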
Protein Wnt-3a [19] = molecular target: T3, Protein Wnt-3a (Mus musculus, UniProt P27467); test: Wnt3a-driven reporter signaling inhibition, dose response, selectivity assay for Gli-SUFU antagonist project, Wnt-LIGHT cells, luminescence (AID 651570); format: functional; details: read-out: IC50_Mean;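 also: Wnt-LIGHT reporter cells stimulated with conditioned medium from Wnt3a-producing cells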
T3 sequence (P27467 whole entry): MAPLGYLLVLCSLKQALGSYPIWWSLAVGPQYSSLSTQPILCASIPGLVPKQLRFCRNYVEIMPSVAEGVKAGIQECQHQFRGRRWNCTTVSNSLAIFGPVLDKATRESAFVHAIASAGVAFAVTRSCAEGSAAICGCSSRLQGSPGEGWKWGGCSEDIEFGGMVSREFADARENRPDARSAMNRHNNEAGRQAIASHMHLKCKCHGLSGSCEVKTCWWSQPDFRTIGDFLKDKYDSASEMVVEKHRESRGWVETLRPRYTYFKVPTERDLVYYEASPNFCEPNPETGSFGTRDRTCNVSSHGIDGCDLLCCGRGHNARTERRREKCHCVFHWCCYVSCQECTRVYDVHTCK

[20] = molecular target: Matrix metalloproteinase-14 (Homo sapiens, UniProt P50281); test: Dose Response confirmation of uHTS hits for a small molecule inhibitors of MT1-MMP activation in a fluorescence assay set 1.; format: functional
Beta-galactosidase = Beta-galactosidase (Escherichia coli, UniProt Q8VNN2); test: Dose response counterscreen for EBI2 assay utilizing the enzyme, b-galactosidase.; format: functional
Sequence of Beta-galactosidase (Q8VNN2 whole entry): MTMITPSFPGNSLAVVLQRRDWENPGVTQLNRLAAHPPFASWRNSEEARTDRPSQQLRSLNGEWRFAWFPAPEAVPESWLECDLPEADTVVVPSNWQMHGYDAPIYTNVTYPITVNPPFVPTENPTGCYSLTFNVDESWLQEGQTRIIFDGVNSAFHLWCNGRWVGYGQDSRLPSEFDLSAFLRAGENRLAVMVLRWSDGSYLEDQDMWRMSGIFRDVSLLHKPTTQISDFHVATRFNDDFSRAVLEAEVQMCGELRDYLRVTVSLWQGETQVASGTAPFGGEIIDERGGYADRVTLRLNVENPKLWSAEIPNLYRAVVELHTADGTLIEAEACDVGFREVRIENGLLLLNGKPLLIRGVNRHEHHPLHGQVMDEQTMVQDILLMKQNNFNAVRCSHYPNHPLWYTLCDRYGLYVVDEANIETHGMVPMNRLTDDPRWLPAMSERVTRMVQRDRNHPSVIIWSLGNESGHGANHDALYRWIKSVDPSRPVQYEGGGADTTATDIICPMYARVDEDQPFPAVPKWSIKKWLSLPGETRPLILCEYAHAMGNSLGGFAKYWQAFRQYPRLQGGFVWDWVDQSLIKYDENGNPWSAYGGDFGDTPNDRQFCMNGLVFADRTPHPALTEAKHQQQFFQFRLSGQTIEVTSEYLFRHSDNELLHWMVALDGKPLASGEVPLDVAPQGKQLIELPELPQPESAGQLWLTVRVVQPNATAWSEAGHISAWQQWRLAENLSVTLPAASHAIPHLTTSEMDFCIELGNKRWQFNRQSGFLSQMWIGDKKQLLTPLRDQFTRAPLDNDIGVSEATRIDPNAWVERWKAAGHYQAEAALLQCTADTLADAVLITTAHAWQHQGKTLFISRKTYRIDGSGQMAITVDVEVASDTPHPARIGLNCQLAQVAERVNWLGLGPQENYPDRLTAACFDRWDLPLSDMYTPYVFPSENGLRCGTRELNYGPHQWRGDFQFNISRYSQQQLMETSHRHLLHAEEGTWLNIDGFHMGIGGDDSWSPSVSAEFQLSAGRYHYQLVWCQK

[21] = Late stage assay provider results from the probe development effort to identify inhibitors of the Plasmodium falciparum M17 Leucine Aminopeptidase (M17LAP): radiolabel-based cell-based dose response assay to identify compounds that inhibit P. falciparum growth in RBCs Set 2.; format: functional
[22] = intracellular Trypanosoma cruzi inhibitors in host cells – cell-based, plate reader, cherry-pick samples, set 3, dose response (AID 651818); format: functional;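 also: compounds incubated with infected cells for about four days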
[23] = NIH/3T3 fibroblast cytotoxicity, dose response, cytotoxicity control for T. cruzi growth inhibitor project, cell-based, cherry-pick samples, set 2 (AID 651817); format: functional; details: NIH3T3
Protein Wnt-3a [24] = molecular target: T3, Protein Wnt-3a; test: SAR analysis of small molecule antagonists of Gli-SUFU in a Wnt3a luminescent reporter assay.; format: functional
[25] = T. cruzi intracellular amastigote growth inhibition, dose response, imaging, CA-I/72 strain, bovine embryo skeletal muscle, dry powder (AID 651885); format: functional, cell-based
Large T antigen = Large T antigen (Simian virus 40, UniProt P03070); format: functional, Betapolyomavirus macacae;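 also: Confirmatory-stage PubChem screen for compounds that inhibit SV40 T antigen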
Sequence of Large T antigen (P03070 whole entry): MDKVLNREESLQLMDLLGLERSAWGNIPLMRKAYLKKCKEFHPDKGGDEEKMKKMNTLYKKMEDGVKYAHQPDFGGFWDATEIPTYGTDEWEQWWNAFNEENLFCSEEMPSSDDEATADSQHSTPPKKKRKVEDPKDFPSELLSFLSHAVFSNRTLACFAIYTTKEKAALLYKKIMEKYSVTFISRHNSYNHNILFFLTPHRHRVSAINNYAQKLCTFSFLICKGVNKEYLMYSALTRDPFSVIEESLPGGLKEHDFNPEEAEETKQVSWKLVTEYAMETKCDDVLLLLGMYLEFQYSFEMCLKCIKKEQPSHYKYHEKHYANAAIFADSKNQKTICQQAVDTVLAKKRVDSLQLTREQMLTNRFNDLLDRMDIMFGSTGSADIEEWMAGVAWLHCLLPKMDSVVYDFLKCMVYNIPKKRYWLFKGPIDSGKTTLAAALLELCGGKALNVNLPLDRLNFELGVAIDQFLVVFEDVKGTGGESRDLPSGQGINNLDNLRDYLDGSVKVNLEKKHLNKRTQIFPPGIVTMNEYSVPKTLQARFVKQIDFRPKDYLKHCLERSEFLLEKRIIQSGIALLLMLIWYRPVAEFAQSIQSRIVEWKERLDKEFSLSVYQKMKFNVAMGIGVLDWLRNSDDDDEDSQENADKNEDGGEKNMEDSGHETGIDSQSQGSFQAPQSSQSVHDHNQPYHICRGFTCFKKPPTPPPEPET

[26] = molecular target: T4, Rac GTPase-activating protein 1 (Homo sapiens, UniProt Q9H0H5); test: MgcRacGAP GTPase-activating activity inhibitors, confirmation, biochemical, ADP Hunter fluorescence, primary and confirmatory (AID 624330); format: functional
T4 sequence (Q9H0H5 whole entry): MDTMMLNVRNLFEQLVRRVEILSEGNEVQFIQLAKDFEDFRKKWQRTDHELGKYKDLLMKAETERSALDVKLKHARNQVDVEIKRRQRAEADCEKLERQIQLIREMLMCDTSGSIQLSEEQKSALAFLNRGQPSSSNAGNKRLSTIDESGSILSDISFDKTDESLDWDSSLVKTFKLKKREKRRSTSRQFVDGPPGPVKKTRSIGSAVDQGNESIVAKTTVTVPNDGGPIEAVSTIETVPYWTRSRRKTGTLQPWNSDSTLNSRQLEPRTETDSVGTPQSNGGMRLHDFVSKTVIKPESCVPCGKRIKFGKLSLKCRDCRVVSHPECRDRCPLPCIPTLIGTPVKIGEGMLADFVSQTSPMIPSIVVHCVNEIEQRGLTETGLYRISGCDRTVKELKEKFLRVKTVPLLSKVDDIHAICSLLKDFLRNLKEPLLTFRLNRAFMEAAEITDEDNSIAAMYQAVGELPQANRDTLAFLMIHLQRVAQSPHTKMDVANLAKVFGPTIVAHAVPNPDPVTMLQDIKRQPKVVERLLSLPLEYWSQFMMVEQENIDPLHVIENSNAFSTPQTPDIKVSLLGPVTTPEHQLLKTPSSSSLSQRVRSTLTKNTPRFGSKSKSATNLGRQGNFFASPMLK

[27] = molecular target: T5, Sentrin-specific protease 1 (Homo sapiens, UniProt Q9P0U3); test: Dose response confirmation of small molecule inhibitors of the catalytic domain of the SUMO protease, SENP1 in a FRET assay.; format: functional; details: read-out: IC50_Mean
T5 sequence (Q9P0U3 whole entry, the tested form may be a part): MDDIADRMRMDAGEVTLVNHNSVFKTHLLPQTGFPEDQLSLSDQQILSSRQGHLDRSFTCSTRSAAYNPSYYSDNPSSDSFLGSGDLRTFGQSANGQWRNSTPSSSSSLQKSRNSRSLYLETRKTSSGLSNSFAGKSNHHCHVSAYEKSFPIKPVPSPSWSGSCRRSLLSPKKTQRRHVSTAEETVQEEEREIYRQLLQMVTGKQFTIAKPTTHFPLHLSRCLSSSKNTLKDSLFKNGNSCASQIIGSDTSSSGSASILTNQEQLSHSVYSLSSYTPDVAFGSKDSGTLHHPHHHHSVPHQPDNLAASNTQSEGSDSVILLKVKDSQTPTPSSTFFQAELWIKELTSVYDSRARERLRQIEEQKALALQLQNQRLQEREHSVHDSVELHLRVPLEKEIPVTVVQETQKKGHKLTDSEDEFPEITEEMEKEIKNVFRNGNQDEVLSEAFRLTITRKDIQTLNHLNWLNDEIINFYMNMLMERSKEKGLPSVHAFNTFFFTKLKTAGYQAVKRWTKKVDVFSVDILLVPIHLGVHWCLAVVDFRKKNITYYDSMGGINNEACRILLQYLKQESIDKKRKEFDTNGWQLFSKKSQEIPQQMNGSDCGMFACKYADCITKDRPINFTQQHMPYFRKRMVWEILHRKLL

[28] = molecular target: T5, Sentrin-specific protease 1; test: potency of human SENP1 inhibitors, dose response, biochemical, kinetic FRET (AID 651697); format: functional; details: read-out: IC50_Mean

Compound: Nc1c(C(=O)Nc2ccc(S(=O)(=O)N3CCCC3)cc2)sc2nc3ccc(OC(F)(F)F)cc3cc12
- AC50 [1]: 15.7 µM (active)
- EC50 [2]: 2.05 µM (active)
- EC50 [3]: 4.12 µM (active)
- EC50 [4]: 3.77 µM (active)
- AC50 (INS1): 3.5 µM (active)
- EC50 [5]: 5.71 µM (inconclusive)

Compound: Cc1ccc2nc(O)c3cc(C(=O)N(C)Cc4ccco4)sc3c2c1
- EC50 [6]: > 91.2 µM (inactive)
- EC50 [7]: > 91.2 µM (inactive)

Compound: COc1ccc(-c2cc(C(F)(F)F)nc(S(C)(=O)=O)n2)cc1
- AC50 [8]: 15.3 µM (active)
- CC50 [9]: 26 µM (active)
- AC50 [10]: 4.46 µM (active)
- AC50 [11]: 45.9 µM (active)
- AC50 [12]: 26.3 µM (active)
- AC50 [13]: 3.81 µM (active)
- AC50 [14]: 48.6 µM (active)
- IC50 (cells): 10.9 µM (active)
- AC50 [15]: 5.05 µM (active)
- IC50 [16]: 5.47 µM (active)
- AC50 [17]: 5.99 µM (active)
- EC50 (Protein RecA): 4.88 µM (active)

Compound: COc1ccc(NC(=O)NNC(=O)c2ccc3ccccc3c2O)c(OC)c1
- IC50 [18]: > 122 µM (inactive)

Compound: C[N+]1=C(/C=C/Nc2ccccc2)C(C)(C)c2ccccc21
- IC50 (Protein Wnt-3a [19]): 50 µM (inactive)
- IC50 [20]: 17.4 µM (active)

Compound: COc1ccc2cc(C(=O)N3CCN(c4cccc(C)c4C)CC3)[nH]c2c1
- IC50 (Beta-galactosidase): > 80 µM (inactive)

Compound: CCCCCCCCCC(=O)NO
- IC50 [21]: 27 µM (inactive)

Compound: Cc1ccc(S(=O)(=O)Nc2ccc3c(c2)CC(=O)N([C@H](C)CO)C[C@@H](C)[C@@H](CN(C)Cc2ccc(Cl)c(Cl)c2)O3)cc1
- AC50 [22]: 3.29 µM (active)
- AC50 [23]: 9.47 µM (active)

Compound: O=C(Nc1cc(N2CCCCC2)ncn1)c1cccc(F)c1
- IC50 (Protein Wnt-3a [24]): > 21.8 µM (inactive)

Compound: C[C@H]1CN([C@@H](C)CO)C(=O)c2cccc(NC(=O)c3ccncc3)c2O[C@@H]1CN(C)Cc1ccc(C(=O)Nc2ccccc2N)cc1
- IC50 [25]: > 20 µM (inactive)

Compound: NC(=O)N/N=C/c1ccc(N2CCOCC2)s1
- IC50 (Large T antigen): 13.8 µM (active)
- IC50 [26]: 40.4 µM (active)
- IC50 [27]: 11.1 µM (active)
- IC50 [28]: 9.07 µM (active)
